# Test results: ChEMBL document CHEMBL5727676, “Bromodomain inhibitors” (2020)
# pKi: −log10 of the molar value.
# Key:
# [1] = biological target: T1, Bromodomain-containing protein 4 (Homo sapiens, UniProt O60885); assay: (§1) TR-FRET Assay: Compound dilution series were prepared in DMSO via an approximately 3-fold serial dilution. Compound dilutions were added directly into white, low-volume assay plates (Perkin Elmer Proxiplate 384 Plus#6008280) using a Labcyte Echo in conjunction with Labcyte Access and Thermo Multidrop CombinL robotics. Compounds were then suspended in eight microliters (μL) of assay buffer (20 mM Sodium Phosphate, pH 6.0, 50 mM NaCl, 1 mM Ethylenediaminetetraacetic acid disodium salt dihydrate, 0.01% Triton X-100, 1 mM DL-Dithiothreitol) containing His-tagged bromodomain, Europium-conjugated anti-His antibody (Invitrogen PV5596) and Alexa-647-conjugated probe.The final concentration of 1× assay mixture contained 2% DMSO, 12 nM His tagged BRD4 (BDI_K57-E168) and 100 nM probe or 4 nM His tagged BRD4 (BDII_E352-M457) and 30 nM probe, and 1 nM Europium-conjugated anti-His-tag antibody, and compound concentrations in the range of: 49.02 μM-0.61 nM or 0.98 μM-0.15 nM.After a one-hour equilibration at room temperature, TR-FRET ratios were determined using an Envision multilabel plate reader (Ex 340, […]).
# [2] = biological target: T1, Bromodomain-containing protein 4; assay: as §1; remark: listed apart in the source
pKi [1],pKi [2],SMILES
5.75,8.13,Cc1cc(F)cc(Cl)c1Oc1ccc(C(C)(C)O)cc1-c1cn(C)c(=O)c2[nH]c(C(=O)NC3(C)CC3(F)F)cc12 (centres undefined)
5.17,8.18,Cc1cccc(C)c1Oc1ccc(C(C)(O)CC(C)C)cc1-c1cn(C)c(=O)c2[nH]c(C(=O)NC(C)(C)C)cc12 (centres undefined)
